Source: article PMC5218480 (PLoS ONE, 2017)

System: MV-4-11 cells
Test: Gene expression microarray analysis (Affymetrix PrimeView) and GSEA
Assay type: cell-based, human
Parameters: RFU PODN (11730768_x_at) / Fold change /veh PODN (11730768_x_at) / RFU LINC00158 (11744669_a_at) / Fold change /veh LINC00158 (11744669_a_at) / RFU DUSP10 (11751237_a_at) / Fold change /veh DUSP10 (11751237_a_at) / RFU ID3 (11757404_x_at) / Fold change /veh ID3 (11757404_x_at) / RFU PLEKHG5 (11737974_s_at) / Fold change /veh PLEKHG5 (11737974_s_at) / RFU LRRC4B (11730491_at) / Fold change /veh LRRC4B (11730491_at) / RFU GIMAP4 (11747438_a_at) / Fold change /veh GIMAP4 (11747438_a_at) / RFU KRT8 (11758183_x_at) / Fold change /veh KRT8 (11758183_x_at) / RFU CNN1 (11734310_a_at) / Fold change /veh CNN1 (11734310_a_at) / RFU VPS37D (11726825_at) / Fold change /veh VPS37D (11726825_at) / RFU C10orf10 (11716522_x_at) / Fold change /veh C10orf10 (11716522_x_at) / RFU KIR2DL2 /// KIR2DL4 /// KIR2DL5A /// KIR2DL5B /// KIR2DS1 /// KIR2DS2 /// KIR2DS3 /// KIR2DS4 /// KIR3DL3 /// KIR3DL3 /// KIR3DS1 (11738374_at) / Fold change /veh KIR2DL2 /// KIR2DL4 /// KIR2DL5A /// KIR2DL5B /// KIR2DS1 /// KIR2DS2 /// KIR2DS3 /// KIR2DS4 /// KIR3DL3 /// KIR3DL3 /// KIR3DS1 (11738374_at) / RFU C1QL1 (11718748_at) / Fold change /veh C1QL1 (11718748_at) / RFU TMPRSS4 (11747572_a_at) / Fold change /veh TMPRSS4 (11747572_a_at) / RFU HAMP (11756126_x_at) / Fold change /veh HAMP (11756126_x_at) / RFU RNFT2 (11725882_a_at) / Fold change /veh RNFT2 (11725882_a_at) / RFU NR4A2 (11747474_a_at) / Fold change /veh NR4A2 (11747474_a_at) / RFU ABCC12 (11746883_a_at) / Fold change /veh ABCC12 (11746883_a_at) / RFU TMEM136 (11760407_x_at) / Fold change /veh TMEM136 (11760407_x_at) / RFU CLDN22 /// WWC2 (11732394_at) / Fold change /veh CLDN22 /// WWC2 (11732394_at) / RFU HLA-DPB1 (11760878_x_at) / Fold change /veh HLA-DPB1 (11760878_x_at) / RFU SPINT1 (11716480_a_at) / Fold change /veh SPINT1 (11716480_a_at) / RFU GAP43 (11754022_s_at) / Fold change /veh GAP43 (11754022_s_at) / RFU A4GNT (11735810_at) / Fold change /veh A4GNT (11735810_at) / RFU PRB3 (11715151_x_at) / Fold change /veh PRB3 (11715151_x_at) / RFU TUBB4B (11761932_at) / Fold change /veh TUBB4B (11761932_at) / RFU CAPN14 (11732068_a_at) / Fold change /veh CAPN14 (11732068_a_at) / RFU TMCC2 (11721928_a_at) / Fold change /veh TMCC2 (11721928_a_at) / RFU IRGQ (11745062_a_at) / Fold change /veh IRGQ (11745062_a_at) / RFU FAM174B (11720279_a_at) / Fold change /veh FAM174B (11720279_a_at) / RFU TMPRSS4 (11748680_a_at) / Fold change /veh TMPRSS4 (11748680_a_at) / RFU FAM212B (11763350_a_at) / Fold change /veh FAM212B (11763350_a_at) / RFU PLEKHG5 (11743358_a_at) / Fold change /veh PLEKHG5 (11743358_a_at) / RFU ZSCAN30 (11745921_a_at) / Fold change /veh ZSCAN30 (11745921_a_at) / RFU CMKLR1 (11741424_a_at) / Fold change /veh CMKLR1 (11741424_a_at) / RFU LOC101060620 /// MAPK8IP1 (11723275_at) / Fold change /veh LOC101060620 /// MAPK8IP1 (11723275_at) / RFU SPTSSB (11747773_x_at) / Fold change /veh SPTSSB (11747773_x_at) / RFU PRSS12 (11739890_at) / Fold change /veh PRSS12 (11739890_at) / RFU BIN1 (11741810_x_at) / Fold change /veh BIN1 (11741810_x_at) / RFU WNT11 (11732464_a_at) / Fold change /veh WNT11 (11732464_a_at) / RFU C10orf10 (11716521_a_at) / Fold change /veh C10orf10 (11716521_a_at) / RFU C5orf56 (11738089_at) / Fold change /veh C5orf56 (11738089_at) / RFU CYB561 (11721691_x_at) / Fold change /veh CYB561 (11721691_x_at) / RFU ANKRD19P (11752326_a_at) / Fold change /veh ANKRD19P (11752326_a_at) / RFU OR2T12 /// OR2T33 /// OR2T8 (11738714_s_at) / Fold change /veh OR2T12 /// OR2T33 /// OR2T8 (11738714_s_at) / RFU VCAN (11748164_a_at) / Fold change /veh VCAN (11748164_a_at) / RFU JSRP1 (11732532_at) / Fold change /veh JSRP1 (11732532_at) / RFU KRTAP10-11 (11738290_x_at) / Fold change /veh KRTAP10-11 (11738290_x_at) / RFU MYO3A (11730013_a_at) / Fold change /veh MYO3A (11730013_a_at) / RFU EBF3 (11725865_a_at) / Fold change /veh EBF3 (11725865_a_at) / RFU CAMK2N1 (11719241_x_at) / Fold change /veh CAMK2N1 (11719241_x_at) / RFU C5orf56 (11738088_a_at) / Fold change /veh C5orf56 (11738088_a_at) / RFU OLFML3 (11715873_a_at) / Fold change /veh OLFML3 (11715873_a_at) / RFU LOC100653217 /// NTM (11731650_a_at) / Fold change /veh LOC100653217 /// NTM (11731650_a_at) / RFU MAPK11 (11762145_a_at) / Fold change /veh MAPK11 (11762145_a_at) / RFU FIZ1 (11724087_x_at) / Fold change /veh FIZ1 (11724087_x_at) / RFU OASL (11726364_x_at) / Fold change /veh OASL (11726364_x_at) / RFU SOX15 (11748057_x_at) / Fold change /veh SOX15 (11748057_x_at) / RFU CD79A (11719716_a_at) / Fold change /veh CD79A (11719716_a_at) / RFU HIST1H1D (11736915_at) / Fold change /veh HIST1H1D (11736915_at) / RFU CASKIN2 (11723855_a_at) / Fold change /veh CASKIN2 (11723855_a_at) / RFU LOC730098 (11760151_x_at) / Fold change /veh LOC730098 (11760151_x_at) / RFU OR4N2 (11742367_at) / Fold change /veh OR4N2 (11742367_at) / RFU PRRT2 (11749266_a_at) / Fold change /veh PRRT2 (11749266_a_at) / RFU SNX32 (11753110_a_at) / Fold change /veh SNX32 (11753110_a_at) / RFU CDHR5 (11726645_a_at) / Fold change /veh CDHR5 (11726645_a_at) / RFU RCAN1 (11760418_a_at) / Fold change /veh RCAN1 (11760418_a_at) / RFU FAM167A (11723789_a_at) / Fold change /veh FAM167A (11723789_a_at) / RFU FAM26E (11764081_at) / Fold change /veh FAM26E (11764081_at) / RFU ISYNA1 (11749810_s_at) / Fold change /veh ISYNA1 (11749810_s_at) / RFU ACY1 (11761880_at) / Fold change /veh ACY1 (11761880_at) / RFU 11764098_at / Fold change /veh 11764098_at / RFU SAMD14 (11745864_x_at) / Fold change /veh SAMD14 (11745864_x_at) / RFU NPB (11741838_a_at) / Fold change /veh NPB (11741838_a_at) / RFU TMPRSS6 (11731388_a_at) / Fold change /veh TMPRSS6 (11731388_a_at) / RFU KRTAP10-2 (11738614_at) / Fold change /veh KRTAP10-2 (11738614_at) / RFU ARHGAP8 /// PRR5-ARHGAP8 (11727945_x_at) / Fold change /veh ARHGAP8 /// PRR5-ARHGAP8 (11727945_x_at) / RFU KRTAP5-7 /// NADSYN1 (11734609_at) / Fold change /veh KRTAP5-7 /// NADSYN1 (11734609_at) / RFU RASL12 (11751679_a_at) / Fold change /veh RASL12 (11751679_a_at) / RFU CDKN2B (11736163_a_at) / Fold change /veh CDKN2B (11736163_a_at) / RFU PRF1 (11729649_at) / Fold change /veh PRF1 (11729649_at) / RFU, ZNF638 /// ZNF638-IT1 / Fold change vs veh, ZNF638 /// ZNF638-IT1 / RFU, PANK3 / Fold change vs veh, PANK3 / RFU, SH3YL1 / Fold change vs veh, SH3YL1 / RFU, ZEB2 / Fold change vs veh, ZEB2 / RFU, NRIP1 / Fold change vs veh, NRIP1 / RFU, PTTG1IP / Fold change vs veh, PTTG1IP / RFU, CAPN2 / Fold change vs veh, CAPN2 / RFU, MED14 / Fold change vs veh, MED14 / RFU, SNORA58 / Fold change vs veh, SNORA58 / RFU, C1orf63 / Fold change vs veh, C1orf63 / RFU, LRRFIP1 / Fold change vs veh, LRRFIP1 / RFU, NDUFAF7 / Fold change vs veh, NDUFAF7 / RFU, SLC12A2 / Fold change vs veh, SLC12A2 / RFU, IBTK / Fold change vs veh, IBTK / RFU, ESF1 / Fold change vs veh, ESF1 / Fold change vs veh, TMEM50B / RFU, TAOK1 / Fold change vs veh, TAOK1 / RFU, ACBD3 / Fold change vs veh, ACBD3 / RFU, TMA16 / Fold change vs veh, TMA16 / RFU, RWDD3 / Fold change vs veh, RWDD3 / RFU, BCAT1 / Fold change vs veh, BCAT1 / RFU, EDEM3 / Fold change vs veh, EDEM3 / RFU, TMEM33 / Fold change vs veh, TMEM33 / RFU, WDR75 / Fold change vs veh, WDR75 / RFU, AHCTF1 / Fold change vs veh, AHCTF1 / RFU, TFRC / Fold change vs veh, TFRC / RFU, ZDHHC17 / Fold change vs veh, ZDHHC17 / RFU, NOM1 / Fold change vs veh, NOM1 / RFU, ARL8B / Fold change vs veh, ARL8B / RFU, ZBTB11 / Fold change vs veh, ZBTB11 / RFU, TAMM41 / Fold change vs veh, TAMM41 / RFU, KIAA1704 /// LOC100996395 / Fold change vs veh, KIAA1704 /// LOC100996395 / RFU, ING1 / Fold change vs veh, ING1 / RFU, TRMT61B / Fold change vs veh, TRMT61B / RFU, FUBP3 / Fold change vs veh, FUBP3 / RFU, TP53 / Fold change vs veh, TP53 / RFU, TNKS2 / Fold change vs veh, TNKS2 / RFU, ZFP14 / Fold change vs veh, ZFP14 / RFU, ACTR2 / Fold change vs veh, ACTR2 / RFU, PPP3R1 / Fold change vs veh, PPP3R1 / RFU, PIK3R1 / Fold change vs veh, PIK3R1 / RFU, HNRNPA1 / Fold change vs veh, HNRNPA1 / RFU, RNF170 / Fold change vs veh, RNF170 / RFU, ZNF28 / Fold change vs veh, ZNF28 / RFU, RNGTT / Fold change vs veh, RNGTT / RFU, OGT / Fold change vs veh, OGT / RFU, BRD1 / Fold change vs veh, BRD1 / RFU, MARS / Fold change vs veh, MARS / RFU, ZNF655 / Fold change vs veh, ZNF655 / RFU, FAHD1 / Fold change vs veh, FAHD1 / RFU, BDP1 / Fold change vs veh, BDP1 / RFU, LRRCC1 / Fold change vs veh, LRRCC1 / RFU, ARID1A / Fold change vs veh, ARID1A / RFU, ZNF146 / Fold change vs veh, ZNF146 / RFU, ZNF330 / Fold change vs veh, ZNF330 / RFU, GPN3 / Fold change vs veh, GPN3 / RFU, C9orf123 / Fold change vs veh, C9orf123 / RFU, N4BP2L2 / Fold change vs veh, N4BP2L2 / RFU, ARFIP1 / Fold change vs veh, ARFIP1 / RFU, FAM179B / Fold change vs veh, FAM179B / RFU, BCL10 / Fold change vs veh, BCL10 / RFU, UHRF1BP1L / Fold change vs veh, UHRF1BP1L / RFU, BET1 / Fold change vs veh, BET1 / RFU, CNOT2 / Fold change vs veh, CNOT2 / RFU, ZNF268 / Fold change vs veh, ZNF268 / Fold change vs veh, ZNF507 / RFU, DGCR2 / Fold change vs veh, DGCR2 / RFU, WDSUB1 / Fold change vs veh, WDSUB1 / Fold change vs veh, HSP90B1 /// MIR3652 / RFU, ADSS / Fold change vs veh, ADSS / RFU, GK / Fold change vs veh, GK / RFU, ZNF148 / Fold change vs veh, ZNF148 / RFU, TAF9 / Fold change vs veh, TAF9 / RFU, SLC1A5 / Fold change vs veh, SLC1A5 / RFU, SLMO2 / Fold change vs veh, SLMO2 / RFU, ABCC4 / Fold change vs veh, ABCC4 / RFU, LOC101060439 /// RAP1B / Fold change vs veh, LOC101060439 /// RAP1B / RFU, RFX7 / Fold change vs veh, RFX7 / RFU, GTPBP10 / Fold change vs veh, GTPBP10 / RFU, CNEP1R1 / Fold change vs veh, CNEP1R1 / RFU, BIVM-ERCC5 /// ERCC5 / Fold change vs veh, BIVM-ERCC5 /// ERCC5 / RFU, ILF3 / Fold change vs veh, ILF3 / RFU 11762660_at / Fold change /veh 11762660_at / RFU VCAN (11757783_s_at) / Fold change /veh VCAN (11757783_s_at) / RFU DDX43 (11728927_at) / Fold change /veh DDX43 (11728927_at) / RFU KRT8 (11758188_x_at) / Fold change /veh KRT8 (11758188_x_at) / RFU NKD1 (11759106_at) / Fold change /veh NKD1 (11759106_at) / RFU SRD5A1 (11742802_a_at) / Fold change /veh SRD5A1 (11742802_a_at) / RFU TPSAB1 /// TPSB2 (11721975_s_at) / Fold change /veh TPSAB1 /// TPSB2 (11721975_s_at) / RFU GSTM3 (11746129_a_at) / Fold change /veh GSTM3 (11746129_a_at) / RFU IL23R (11737362_x_at) / Fold change /veh IL23R (11737362_x_at) / RFU TMEM51 (11727254_a_at) / Fold change /veh TMEM51 (11727254_a_at) / RFU PIWIL2 (11732686_x_at) / Fold change /veh PIWIL2 (11732686_x_at) / RFU ORM1 (11744905_x_at) / Fold change /veh ORM1 (11744905_x_at) / RFU CCDC152 (11743942_at) / Fold change /veh CCDC152 (11743942_at) / RFU ECM1 (11717891_a_at) / Fold change /veh ECM1 (11717891_a_at) / RFU IL23R (11748794_a_at) / Fold change /veh IL23R (11748794_a_at) / RFU TNFAIP8L3 (11732012_x_at) / Fold change /veh TNFAIP8L3 (11732012_x_at) / RFU MBOAT4 (11741988_at) / Fold change /veh MBOAT4 (11741988_at) / RFU 11764193_at / Fold change /veh 11764193_at / RFU TMEM53 (11763286_at) / Fold change /veh TMEM53 (11763286_at) / RFU MAGEB2 (11727129_at) / Fold change /veh MAGEB2 (11727129_at) / RFU TMEM200A (11744735_a_at) / Fold change /veh TMEM200A (11744735_a_at) / RFU CCDC152 (11751479_a_at) / Fold change /veh CCDC152 (11751479_a_at) / RFU FAM211A (11726209_a_at) / Fold change /veh FAM211A (11726209_a_at) / RFU RGS16 (11746705_a_at) / Fold change /veh RGS16 (11746705_a_at) / RFU VCAN (11755009_s_at) / Fold change /veh VCAN (11755009_s_at) / RFU RHOB (11743442_s_at) / Fold change /veh RHOB (11743442_s_at) / RFU RGS16 (11720943_a_at) / Fold change /veh RGS16 (11720943_a_at) / RFU RGS16 (11720944_at) / Fold change /veh RGS16 (11720944_at) / RFU, VPS4B / Fold change vs veh, VPS4B / RFU, CREB1 / Fold change vs veh, CREB1 / RFU, DNAJC13 / Fold change vs veh, DNAJC13 / RFU, GNAQ / Fold change vs veh, GNAQ / RFU, CDK5R1 / Fold change vs veh, CDK5R1 / RFU, ZRANB3 / Fold change vs veh, ZRANB3 / RFU, CUL4A / Fold change vs veh, CUL4A / RFU, CCNY / Fold change vs veh, CCNY / RFU, UFL1 / Fold change vs veh, UFL1 / RFU, COG3 / Fold change vs veh, COG3 / RFU, DIAPH2 / Fold change vs veh, DIAPH2 / RFU, SKA2 / Fold change vs veh, SKA2 / RFU, AFF3 / Fold change vs veh, AFF3 / RFU, LMF1 / Fold change vs veh, LMF1 / RFU, IPO11 / Fold change vs veh, IPO11 / RFU, DFFB / Fold change vs veh, DFFB / RFU, FOXP1 / Fold change vs veh, FOXP1 / RFU, CARD8 / Fold change vs veh, CARD8 / RFU, STRN3 / Fold change vs veh, STRN3 / RFU, ADK / Fold change vs veh, ADK / RFU, RASSF2 / Fold change vs veh, RASSF2 / RFU, WIPF1 / Fold change vs veh, WIPF1 / RFU, LARP1B / Fold change vs veh, LARP1B / RFU, RASA1 / Fold change vs veh, RASA1 / RFU, RB1 / Fold change vs veh, RB1 / RFU, PPFIA1 / Fold change vs veh, PPFIA1 / RFU, MAT2A / Fold change vs veh, MAT2A / RFU, CCT5 / Fold change vs veh, CCT5 / RFU, WDR92 / Fold change vs veh, WDR92 / RFU, CUX1 / Fold change vs veh, CUX1 / RFU, TTC7A / Fold change vs veh, TTC7A / RFU, TMEM135 / Fold change vs veh, TMEM135 / RFU, DEPTOR / Fold change vs veh, DEPTOR / RFU, CPM / Fold change vs veh, CPM / RFU, DNAJB6 / Fold change vs veh, DNAJB6 / RFU, CACNA2D3 / Fold change vs veh, CACNA2D3 / RFU, DTX4 / Fold change vs veh, DTX4 / RFU, TFCP2 / Fold change vs veh, TFCP2 / RFU, GMCL1 /// GMCL1P1 / Fold change vs veh, GMCL1 /// GMCL1P1 / RFU, AEBP2 / Fold change vs veh, AEBP2 / RFU, SNHG1 /// SNORD22 /// SNORD25 /// SNORD26 /// SNORD27 /// SNORD28 /// SNORD29 /// SNORD31 / Fold change vs veh, SNHG1 /// SNORD22 /// SNORD25 /// SNORD26 /// SNORD27 /// SNORD28 /// SNORD29 /// SNORD31 / Fold change (Aza/veh), C12orf56 (ProbeSet 11735607_a_at) / Fold change (ACY-1035/veh), C12orf56 (ProbeSet 11735607_a_at) / Fold change (Aza/veh), FGFR1OP (ProbeSet 11751329_s_at) / Fold change (ACY-1035/veh), FGFR1OP (ProbeSet 11751329_s_at) / Fold change (Aza/veh), VPS36 (ProbeSet 11739960_a_at) / Fold change (ACY-1035/veh), VPS36 (ProbeSet 11739960_a_at) / RFU SYPL1 (11715823_x_at) / Fold change /veh SYPL1 (11715823_x_at) / RFU IGFBP7 (11715501_s_at) / Fold change /veh IGFBP7 (11715501_s_at) / RFU REEP3 (11722064_at) / Fold change /veh REEP3 (11722064_at) / RFU IGLL1 (11728026_x_at) / Fold change /veh IGLL1 (11728026_x_at): dose or concentration left out as unconfirmed
Conditions: MV-4-11 cells, 48 hours

Compound: Nc1ccc(-c2cccs2)cc1NC(=O)c1ccc2c(c1)cc(C1CC1)n2CCN1CCOCC1 [ACY-1035]
- Fold change /veh C10orf10 (11716522_x_at): 1.10
